# Source: patent US20210052528A1, “THE USE OF SGC ACTIVATORS AND SGC STIMULATORS FOR THE TREATMENT OF COGNITIVE IMPAIRMENT” (Bayer Aktiengesellschaft, priority 2018, published 2021)
# Like-named read-outs stand apart in the source and are kept apart here.
# How the values were obtained:
# healthy mice = conditions: cited from earlier work
# normotensive Wistar rats = assay: Measurement of arterial blood pressure in vivo by radiotelemetry in conscious rats; design: species or system rat; conditions: over 24 hours; for effect on mean arterial blood pressure (MAP) over the dose range: all tested doses compared to vehicle
# Method: Adult normotensive Wistar rats (Wistar HSD CPB:WU) with a body weight of 250 to 350 g were used for these experimental studies. All animals were housed in individual cages at 22-24° C. ambient temperature and maintained on a 12-hour light/dark cycle with free access to standard laboratory rat chow and water ad libitum. All animal experiments were done in accordance to the current national legislation (German protection of animals act and the EU directives on the protection of animals used for scientific purposes). All performed studies were approved by the regional regulatory authority (LANUV NRW in Germany) and by the institutional animal care and use committee of Bayer AG.
# Blood pressure is monitored in freely moving conscious rats by radiotelemetry by a telemetric system (DSI Data Science International, MN, USA). A transmitters (TAI1PA-C40) is implanted in the abdomen of the rat during deep anaesthesia. After recovery of the rats, telemetric signals are registered by a receiver plate (RA1010) and compiled by a computer-based acquisition software (Dataquest A.R.T 4.1 for Windows).
# After shaving the abdominal wall of the rat, a midline abdominal incision was made, and the fluid-filled sensor catheter was inserted upstream into the exposed descending aorta between the iliac bifurcation and the renal arteries. According to the DSI guidelines the tip of the telemetric catheter was located just caudal to the renal arteries and secured by tissue adhesive. The transmitter body was affixed to the inner peritoneal wall before closure of abdomen. A two-layer closure of the abdominal incision was used, with individual suturing of the peritoneum and the muscle wall followed by closure of the outer skin. Surgery was performed under aseptic conditions. For postsurgical protection against infections and pain a single dosage of an antibiotic (Oxytetracyclin® 10%, 60 mg/kg s.c., 0.06 ml/100 g body weight, Beta-Pharma GmbH & Co, Germany) and analgesic were injected (Rimadyl®, 4 mg/kg s.c., Pfizer, Germany).
# After activation of the implanted transmitters, A.R.T., an on-line data acquisition system, samples data and converts telemetric pressure signals to mm Hg. A barometric pressure reference allows for relation of absolute pressure (relative to vacuum) to ambient atmospheric pressure. Data acquisition software was predefined to sample hemodynamic data for 10-s intervals every 5 minutes. Data collection to file was started 2 hours (T=−2 hours) before drug administration (T=0 hours) and finished after completion of 24 hours (T=24 hours).
# Data are expressed as % of baseline values. The baseline value for each animal was calculated and represents the mean blood pressure of the 2 hour period (T=−2 hours to T=0 hours) before the administration of drug or vehicle. For further analysis data were grouped to provide mean for every 0.5 hours. The means of all values obtained for each individual during the period indicated were averaged for each day. Groups were compared by one-way ANOVA with Dunnet's test.
# All animals were treated with single oral doses of vehicle or the compound in different dosages (e.g. 0.3, 1.0, 3.0, or 10.0 mg/kg). Application volume was 2 ml/kg body weight. The experiment started at 7:00 a.m. (T=−2 hours), vehicle or drug administration took place at 9.00 a.m. (=0 hours) and registration period was 24 hours. For analysis, data were grouped to provide half-hourly averages.
# male Wistar rats = assay: Object Location Task (OLT), learning and memory improvement in vivo; design: species or system rat; conditions: for memory performance, discrimination index (d2), compared with chance level (d2=0): one-sample t-test; for memory performance, discrimination index (d2), compared to the vehicle condition: one-way ANOVA, LSD t-tests; for dose with the most prominent effect in the memory test: object location task, rats, dose does not decrease blood pressure
# Description: Therefore, the well accepted Object Location Task (OLT) in rats was used. This task allows the assessment of acquisition, consolidation and retrieval of (spatial) information into memory, and is derived from the Object Recognition Task (ORT) (e.g. Ennaceur and Delacour, 1988; Prickaerts et al., 1997).
# All experimental procedures were approved by the local ethical committee of Maastricht University for animal experiments and met governmental guidelines. […] The animals were housed individually in a standard IVC cage system on sawdust bedding in an air-conditioned room (about 20° C.). They were kept under a reversed 12/12 h light/dark cycle (lights on from 19.00 to 07.00) and had free access to food and water. Rats were housed and tested in the same room. A radio, which was playing softly, provided background noise in the room. All testing was done between 09.00 and 17.00.
# The test compounds were freshly prepared on every experimental day and were dissolved in 0.5% Tylose solution (98% of the end volume) with 2% Tween80.
# The order of the treatments was balanced to prevent the data from being distorted by potential object- and side-preferences of the animals.
# The Object Location Task (OLT) was derived from the Object Recognition Test (ORT) (Ennaceur and Delacour, 1988). The OLT is a one-trial learning task which allows the assessment of spatial memory, and was performed as described elsewhere (Bruno et al., 2011, Vanmierlo et al., 2011). In the first (learning) trial a rat is put into an arena in which two identical objects are placed. After a certain delay, the rat is given a second trial. In this second trial the rat is again placed in the same arena but now one of the objects has been moved to a different position within the area. In other words, a new spatial arrangement is being used.
# The apparatus consisted of a circular arena, 83 cm in diameter. The back-half of the 40 cm high arena wall was made of gray polyvinyl chloride, the front-half consisted of transparent polyvinyl chloride. The light intensity was equal in the different parts of the apparatus, as fluorescent red tubes provided a constant illumination of about 20 lux on the floor of the apparatus. In the first (learning) trial (T1), two objects were placed in a symmetrical position on a distance of about 10 cm from the wall of the left- and the right-side of the arena. In the second (test) trial (T2), one object is moved to a new location which is about 20 cm higher or lower than the original positon. Four different sets of objects were used. The different objects were: 1) a cone consisting of a gray polyvinyl chloride base (maximal diameter 18 cm) with a collar on top made of aluminum (total height 16 cm), 2) a standard 1 L brown glass bottle (diameter 10 cm, height 22 cm) filled with water, 3) a massive metal cube (10.0×5.0×7.5 cm) with two holes (diameter 1.9 cm), and 4) a solid aluminum cube with a tapering top (13.0×8.0×8.0 cm). Rats were unable to displace the objects.
# A testing session consisted of two trials. The duration of each trial was 3 min. During the first trial (T1) the apparatus contained two identical objects. Rats were placed in the apparatus facing the wall at the middle of the front (transparent) segment. After the first exploration period the rat was put back in its home cage. Subsequently, after a 24 h delay interval, the rat was put in the apparatus for the second trial (T2). The total time an animal spent exploring each object during T1 and T2 was recorded manually with a personal computer.
# Exploration was defined as follows: directing the nose to the object at a distance of no more than 2 cm and/or touching the object with the nose. Sitting on the object was not considered as exploratory behavior. A minimal amount of object interaction is required in order to achieve reliable object discrimination, therefore rats that explore less than 7 s in T1 and/or 9 s in T2 should be excluded from the analyses (Akkerman et al., 2012).
# [1] = 0.1 mg/kg p.o. 30 min before T1, 24 h interval
# [2] = 0.3 mg/kg p.o. 30 min before T1, 24 h interval
# [3] = 1.0 mg/kg p.o. 30 min before T1, 24 h interval
Compound,spatial memory (healthy mice; higher doses 0.1-0.3 mg/kg),spatial memory (healthy mice; lower dose 0.01 mg/kg),spatial memory (healthy mice; single dose of 0.03 mg/kg),mean arterial blood pressure (MAP) compared to vehicle (normotensive Wistar rats; 0.3 mg/kg single oral dose),mean arterial blood pressure (MAP) compared to vehicle (normotensive Wistar rats; 1.0 mg/kg single oral dose),mean arterial blood pressure (MAP) compared to vehicle (normotensive Wistar rats; 3.0 mg/kg single oral dose),effect on mean arterial blood pressure (MAP) over the dose range (normotensive Wistar rats),"memory performance, discrimination index (d2), compared with chance level (d2=0) (male Wistar rats; [1])","memory performance, discrimination index (d2), compared with chance level (d2=0) (male Wistar rats; [2])","memory performance, discrimination index (d2), compared to the vehicle condition (male Wistar rats; [2])","memory performance, discrimination index (d2), compared with chance level (d2=0) (male Wistar rats; [3])","memory performance, discrimination index (d2), compared to the vehicle condition (male Wistar rats; [3])",dose with the most prominent effect in the memory test (male Wistar rats) [mg/kg],mean arterial blood pressure (MAP) compared to vehicle (normotensive Wistar rats; 10.0 mg/kg single oral dose),"memory performance, discrimination index (d2), compared with chance level (d2=0) (male Wistar rats; 0.03 mg/kg p.o. 30 min before T1, 24 h interval)","memory performance, discrimination index (d2), compared to the vehicle condition (male Wistar rats; [1])"
COC(=O)N(C)c1c(N)nc(-c2nn(Cc3ccccc3F)c3ncccc23)nc1N [Riociguat],no significant effect,no significant effect,able to enhance spatial memory,,,,,,,,,,,,,
"COC(=O)Nc1c(N)nc(-c2nn(Cc3ccccc3F)c3ncc(F)cc23)nc1N [compound of formula (5), methyl{4,6-diamino-2-[5-fluoro-1-(2-fluorobenzyl)-1H-pyrazolo[3,4-b]pyridine-3-yl]pyrimidin-5-yl}carbamate]",,,,no significant decrease,significantly lowered,significantly lowered,dose-dependent effect,improved memory performance,improved memory performance,significant higher memory performance,improved memory performance,significant higher memory performance,0.3,,,
"O=C(O)CCCCN(CCc1cc(F)ccc1OCc1ccc(-c2ccc(C(F)(F)F)cc2)cc1)Cc1ccc(C(=O)O)cc1 [compound of formula (2), 4-({(4-carboxybutyl)[2-(5-fluoro-2-{[4′-(trifluoromethyl)[1,1′-biphenyl]-4-yl]methoxy}phenyl)ethyl]amino}methyl)benzoic acid]",,,,,,,,improved memory performance,improved memory performance,significant higher memory performance,improved memory performance,significant higher memory performance,,,,
"C[C@H]([C@H](C(=O)Nc1cc(C(CC(=O)O)C2CC2)ccc1Cl)c1ccc(Cl)cc1)C(F)(F)F (stereo partly drawn) [compound of formula (1), 3-(4-chloro-3-{[(2S,3R)-2-(4-chlorophenyl)-4,4,4-trifluoro-3-methylbutanoyl]amino}phenyl)-3-cyclopropylpropanoic acid]",,,,,no significant decrease,no significant decrease,dose-dependent effect,improved memory performance,improved memory performance,significant higher memory performance,improved memory performance,significant higher memory performance,0.3,significantly lowered,improved memory performance,significant higher memory performance
